Laboratory results taken from the NIST ThermoML archive (doi:10.1007/s10765-012-1371-1).
Numbers after ± are expanded uncertainties.

Assay: xn = mol fraction of the nth substance listed
Conditions: 101 kPa, Liquid

CCCCCl [1-chlorobutane] + COC(C)(C)C
viscosity [mPa·s]
Conditions | 283.15 K | 288.15 K | 293.15 K | 298.15 K | 303.15 K | 308.15 K | 313.15 K
x1 = 0.0499 | 0.395 ± 0.0078 | 0.369 ± 0.0074 | 0.3525 ± 0.0072 | 0.3367 ± 0.0069 | 0.3193 ± 0.0067 | 0.3033 ± 0.0065 | 0.288 ± 0.0062
x1 = 0.1002 | 0.4003 ± 0.0079 | 0.3741 ± 0.0075 | 0.3571 ± 0.0072 | 0.3409 ± 0.007 | 0.3234 ± 0.0068 | 0.3074 ± 0.0065 | 0.2915 ± 0.0063
x1 = 0.2011 | 0.411 ± 0.0081 | 0.3844 ± 0.0077 | 0.3663 ± 0.0074 | 0.3494 ± 0.0071 | 0.332 ± 0.0069 | 0.3159 ± 0.0066 | 0.2991 ± 0.0064
x1 = 0.302 | 0.4224 ± 0.0082 | 0.3952 ± 0.0078 | 0.3758 ± 0.0075 | 0.3582 ± 0.0073 | 0.3408 ± 0.007 | 0.3247 ± 0.0068 | 0.3068 ± 0.0065
x1 = 0.4007 | 0.4339 ± 0.0084 | 0.4063 ± 0.008 | 0.3855 ± 0.0077 | 0.367 ± 0.0074 | 0.3498 ± 0.0071 | 0.3335 ± 0.0069 | 0.3146 ± 0.0066
x1 = 0.5026 | 0.4461 ± 0.0086 | 0.418 ± 0.0082 | 0.3959 ± 0.0078 | 0.3765 ± 0.0075 | 0.3592 ± 0.0073 | 0.3428 ± 0.007 | 0.3229 ± 0.0068
x1 = 0.6029 | 0.4581 ± 0.0088 | 0.4295 ± 0.0083 | 0.4063 ± 0.008 | 0.386 ± 0.0077 | 0.3686 ± 0.0074 | 0.3519 ± 0.0072 | 0.3312 ± 0.0069
x1 = 0.693 | 0.4686 ± 0.0089 | 0.4396 ± 0.0085 | 0.4155 ± 0.0081 | 0.3945 ± 0.0078 | 0.377 ± 0.0075 | 0.3605 ± 0.0073 | 0.3389 ± 0.007
x1 = 0.8064 | 0.481 ± 0.0091 | 0.4518 ± 0.0087 | 0.4266 ± 0.0083 | 0.4048 ± 0.008 | 0.3876 ± 0.0077 | 0.371 ± 0.0075 | 0.3482 ± 0.0071
x1 = 0.904 | 0.4912 ± 0.0093 | 0.4616 ± 0.0088 | 0.4355 ± 0.0084 | 0.4134 ± 0.0081 | 0.3966 ± 0.0078 | 0.3799 ± 0.0076 | 0.3563 ± 0.0073
x1 = 0.9509 | 0.4951 ± 0.0093 | 0.4658 ± 0.0089 | 0.4392 ± 0.0085 | 0.4173 ± 0.0081 | 0.4007 ± 0.0079 | 0.3841 ± 0.0077 | 0.3601 ± 0.0073
x1 = 1 | 0.4993 ± 0.0094 | 0.4701 ± 0.009 | 0.4433 ± 0.0085 | 0.4214 ± 0.0082 | 0.405 ± 0.0079 | 0.3885 ± 0.0077 | 0.3642 ± 0.0074

CC(C)CCl [1-chloro-2-methylpropane] + COC(C)(C)C
viscosity [mPa·s]
Conditions | 283.15 K | 288.15 K | 293.15 K | 298.15 K | 303.15 K | 308.15 K | 313.15 K
x1 = 0.0492 | 0.3948 ± 0.0078 | 0.369 ± 0.0074 | 0.3527 ± 0.0072 | 0.3369 ± 0.0069 | 0.3194 ± 0.0067 | 0.3035 ± 0.0065 | 0.2885 ± 0.0062
x1 = 0.0996 | 0.4002 ± 0.0079 | 0.3742 ± 0.0075 | 0.3573 ± 0.0072 | 0.3412 ± 0.007 | 0.3237 ± 0.0068 | 0.3076 ± 0.0065 | 0.2926 ± 0.0063
x1 = 0.1979 | 0.4107 ± 0.0081 | 0.3844 ± 0.0077 | 0.3664 ± 0.0074 | 0.3495 ± 0.0071 | 0.3322 ± 0.0069 | 0.316 ± 0.0066 | 0.3005 ± 0.0064
x1 = 0.3023 | 0.4224 ± 0.0082 | 0.3957 ± 0.0078 | 0.3764 ± 0.0075 | 0.3587 ± 0.0073 | 0.3412 ± 0.007 | 0.3248 ± 0.0068 | 0.3091 ± 0.0065
x1 = 0.4027 | 0.4338 ± 0.0084 | 0.4065 ± 0.008 | 0.3861 ± 0.0077 | 0.3676 ± 0.0074 | 0.3502 ± 0.0071 | 0.3335 ± 0.0069 | 0.3174 ± 0.0067
x1 = 0.504 | 0.4458 ± 0.0086 | 0.4178 ± 0.0082 | 0.396 ± 0.0078 | 0.3768 ± 0.0075 | 0.3594 ± 0.0073 | 0.3424 ± 0.007 | 0.3261 ± 0.0068
x1 = 0.5971 | 0.4574 ± 0.0088 | 0.4287 ± 0.0083 | 0.4057 ± 0.008 | 0.3856 ± 0.0077 | 0.3681 ± 0.0074 | 0.351 ± 0.0072 | 0.3341 ± 0.0069
x1 = 0.7036 | 0.4714 ± 0.009 | 0.442 ± 0.0085 | 0.4173 ± 0.0082 | 0.3962 ± 0.0078 | 0.3786 ± 0.0076 | 0.3611 ± 0.0073 | 0.3437 ± 0.0071
x1 = 0.8003 | 0.4848 ± 0.0092 | 0.4547 ± 0.0087 | 0.4286 ± 0.0083 | 0.4063 ± 0.008 | 0.3886 ± 0.0077 | 0.3707 ± 0.0074 | 0.3527 ± 0.0072
x1 = 0.9031 | 0.5 ± 0.0094 | 0.4689 ± 0.0089 | 0.4413 ± 0.0085 | 0.4179 ± 0.0082 | 0.3998 ± 0.0079 | 0.3813 ± 0.0076 | 0.3626 ± 0.0073
x1 = 0.9522 | 0.5078 ± 0.0095 | 0.4763 ± 0.0091 | 0.4478 ± 0.0086 | 0.4238 ± 0.0082 | 0.4054 ± 0.008 | 0.3868 ± 0.0077 | 0.3676 ± 0.0074
x1 = 1 | 0.5155 ± 0.0096 | 0.4833 ± 0.0092 | 0.454 ± 0.0087 | 0.4296 ± 0.0083 | 0.4112 ± 0.008 | 0.3921 ± 0.0078 | 0.3726 ± 0.0075
